Usually IC50 stands for the concentration at which inhibition is half-maximal. A low value points to greater potency in that assay.

Some results are limits rather than exact numbers.

The values below come from ChEMBL document CHEMBL1135511, “Structure activity of 3-aryl-1,3-diketo-containing compounds as HIV-1 integrase inhibitors” (J Med Chem, 2002).

Assay [1] concerns the target T1, Human immunodeficiency virus type 1 integrase (Human immunodeficiency virus 1, UniProt Q7ZJM1).
Assay [2] concerns the target T1, Human immunodeficiency virus type 1 integrase. This is another data set of the same source.
The nature of assay [3]: Inhibitory concentration by single cycle replication assay using envelope deficient HIV-1. The class given is functional, Homo sapiens.
In assay [4] the target is T1, Human immunodeficiency virus type 1 integrase. As to the kind of experiment: Inhibitory effect on 3'-processing(3'-P) of proximal DNA in an extracellular HIV-1 integrase assay in experiment 2.
The target is the same in assay [5]. Briefly: Inhibitory effect on strand transfer of proximal DNA into host DNA in an extracellular HIV-1 integrase assay in experiment 1.
The target is the same in assay [6]. Briefly: Inhibitory effect on strand transfer of proximal DNA into host DNA in an extracellular HIV-1 integrase assay in experiment 2.
The target is the same in assay [7]. As to the kind of experiment: Inhibitory effect on 3'-processing(3'-P) of proximal DNA in an extracellular HIV-1 integrase assay in experiment 1.

T1 sequence (Q7ZJM1 whole entry): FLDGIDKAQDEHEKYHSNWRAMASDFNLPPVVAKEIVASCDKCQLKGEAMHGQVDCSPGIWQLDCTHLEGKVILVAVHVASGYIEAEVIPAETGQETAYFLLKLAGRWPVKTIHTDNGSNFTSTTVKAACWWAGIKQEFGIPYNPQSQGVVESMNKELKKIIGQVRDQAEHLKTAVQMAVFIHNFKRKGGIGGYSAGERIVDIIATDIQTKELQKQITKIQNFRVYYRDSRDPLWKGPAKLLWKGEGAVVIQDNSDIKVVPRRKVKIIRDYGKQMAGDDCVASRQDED

Turning to `COc1ccc(Cn2nnnc2C(=O)/C=C(\O)c2cc(OCc3ccccc3)cc(OCc3ccccc3)c2)cc1`, the IC50 in assay [1] and in assay [2] was more than 100 µM each time.
As to `CCOC(=O)C(=O)/C=C(\O)c1c[nH]c2ccc(Cl)cc12`, the concentration for half-maximal inhibition (IC50) in assay [1] was 6.9 µM; in assay [2] it was more than 100 µM.
Taken in the same sequence, the figures for `COc1cc(Cn2nnnc2C(=O)/C=C(\O)c2c[nH]c3ccccc23)cc(OC)c1` were more than 100 µM and more than 100 µM.
In the case of `O=C(O)C(=O)/C=C(\O)c1cccc(OCc2ccccc2)c1`, the IC50 in assay [3] was found to be 0.6 µM; in assay [4], 100 µM; in assay [1] it was 0.35 µM.
As to `O=C(O)C(=O)/C=C(\O)c1ccc(Oc2ccccc2)cc1`, the figures for the IC50 in assay [5], in assay [6] and in assay [2] were 7.8 µM, 15 µM and more than 100 µM, respectively.
As to `O=C(O)C(=O)/C=C(\O)c1cccc(/C(O)=C/C(=O)C(=O)O)c1`, the half-inhibitory concentration (IC50) turned out to be 1.83 µM in assay [1] and 7.8 µM in assay [2].
Turning to `O=C(O)C(=O)/C=C(\O)c1c[nH]c2ccc(Cl)cc12`, the half-inhibitory concentration (IC50) in assay [1] was 0.52 µM.
Take `O=C(O)C(=O)/C=C(\O)c1ccc(/C(O)=C/C(=O)C(=O)O)cc1`: the IC50 in assay [7] was found to be 7.2 µM; in assay [4], 7.5 µM; in assay [1] it was 1.28 µM.
In the case of `COc1ccc(Cn2nnnc2C(=O)/C=C(\O)c2c[nH]c3ccccc23)cc1`, the IC50 in assay [1] and in assay [2] was more than 100 µM in each case.
As to `O=C(O)C(=O)/C=C(\O)c1cccc(Br)c1`, the IC50 in assay [5] is 2 µM; in assay [6], 3 µM; in assay [2], more than 100 µM.
In the case of `O=C(O)C(=O)/C=C(\O)c1cc(OCc2ccccc2)cc(OCc2ccccc2)c1`, the concentration for half-maximal inhibition (IC50) in assay [3] was 2.3 µM; in assay [1], 0.48 µM; in assay [2], more than 1000 µM.
For `O=C(O)C(=O)/C=C(\O)c1cccc(NC(=O)c2ccccc2)c1`, the half-maximal inhibitory concentration (IC50) in assay [1] is 35 µM; in assay [2], more than 100 µM.
On to `O=C(O)C(=O)/C=C(\O)c1c[nH]c2ccccc12`, for which the IC50 is 1.43 µM in assay [1] and more than 100 µM in assay [2].
Taken in the same sequence, the figures for `COc1ccc(Cn2nnnc2C(=O)/C=C(\O)c2c[nH]c3ccc(Cl)cc23)cc1` were 34 µM and more than 100 µM.
As to `O=C(CC(=O)c1c[nH]c2ccccc12)c1nnn[nH]1`, the concentration for half-maximal inhibition (IC50) was 1.9 µM in assay [5], 2 µM in assay [6] and more than 100 µM in assay [2].
In the case of `O=C(CC(=O)c1c[nH]c2ccc(F)cc12)c1nnn[nH]1`, the half-inhibitory concentration (IC50) came out at 1.8 µM in assay [1] and 79 µM in assay [2].
Taken in the same sequence, the figures for `O=C(O)c1ccc2[nH]cc(C(=O)CC(=O)c3nnn[nH]3)c2c1` were 40 µM and 40 µM.
Taken in the same sequence, the figures for `O=C(O)C(=O)/C=C(\O)c1ccnc2ccccc12` were more than 100 µM and more than 100 µM.
The like results for `O=C(O)C(=O)/C=C(\O)c1cc(/C(O)=C/C(=O)C(=O)O)c2ccccc2n1` were, in that order, 6.5 µM and 82 µM.
